This note sets out measurements from patent US20120029187A1, “HALOALKYLSULFONANILIDE DERIVATIVE” (Nissan Chemical Industries, Ltd., priority 2009, published 2012).

Type in all cases: in vivo
The test system of series [1] is barnyardgrass. The series can be described thus: Comparative Example 2: herbicidal effects on barnyardgrass during the vegetation period under submerged conditions. To be noted: applied to water surface at the 2- or 2.5-leaf stage, three weeks after application. How it is done: Comparative Example 2 Test on the Herbicidal Effects on Barnyardgrass During the Vegetation Period Under Submerged Conditions Alluvial soil was put in 1/30000-are styrol cups and admixed with water so that it was submerged at a depth of 4 cm. In each cup, seeds of barnyardgrass were sown, and the cups were placed in a greenhouse at 25 to 30° C. to grow the plants. When the barnyardgrass reached the 2- or 2.5-leaf stage, emulsifiable concentrates containing compounds of the present invention and the comparative compounds formulated in accordance with Formulation Example 2 were applied to the water surfaces at predetermined doses after diluted with water. Three weeks after the application, the herbicidal effects were determined on the same evaluation scale as in Test Example 1. The symbol A in the table is the same as defined above.

Series [2] deals with barnyardgrass. The series can be described thus: Comparative Example 1: herbicidal effects in preemergence treatment on barnyardgrass under submerged conditions. The note with it: applied to water surface on the day of seeding, three weeks after application. From the text:
Comparative Example 1 Test on the Herbicidal Effects in Preemergence Treatment on Barnyardgrass Under Submerged Conditions Alluvial soil was put in 1/30000-are styrol cups and admixed with water so that it was submerged at a depth of 4 cm. In each cup, seeds of barnyardgrass were sown, and on the same day as the seeding, emulsifiable concentrates containing compounds of the present invention formulated in accordance with Formulation Example 2 were applied to the water surfaces at predetermined doses after diluted with water. The cups were placed in a greenhouse at 25 to 30° C. to grow the plants. Three weeks after the application, the herbicidal effects against barnyardgrass were determined on the following evaluation scale. The symbol A in the table means barnyardgrass.

The subject of series [3] is transplanted rice. The series can be described thus: Test Example 1: preemergence treatment under submerged conditions, effect on crop. To be noted: dose 2.52 g/a. An outline of the steps: (§1)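 Scoring 0 (<5% mortality) to 5 (≥90%) was done three weeks after preemergence application to the water surface of submerged (4 cm) alluvial soil, doses given as g per are. Weeds were seeded and 2.5-leaf rice transplanted on the treatment day; greenhouse at 25–30 °C.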

Series [4] relates to common lambsquater. The series can be described thus: Test Example 4: herbicidal effect in foliage treatment. The note with it: dose 3.2 g/a, three weeks after the application. An outline of the steps: (§2)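 Post-emergence foliar spray of water-diluted emulsifiable concentrate at predetermined doses (g per are), applied to plants 14 days after sowing in sterile diluvial soil (greenhouse, 25 to 30° C). Visual scale rating of effect taken 3 weeks later.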

The test system of series [5] is posumbu knotweed. The series is described as above. The note with it: dose 3.2 g/a, three weeks after the application. A digest of the protocol: as §2
Series [6] has as its system wild oat. Described as above. To be noted: dose 3.2 g/a, three weeks after the application. A digest of the protocol:
as §2

Series [7] relates to common chickweed. The series is described as above. The note with it: dose 3.2 g/a, three weeks after the application. A digest of the protocol:
as §2

Series [8] has as its system barnyardgrass. Described as above. The note with it: dose 3.2 g/a, three weeks after the application. A digest of the protocol: as §2
Series [9] concerns water foxtail. Described as above. The note with it: dose 3.2 g/a, three weeks after the application. An outline of the steps: as §2
In series [10] the test system is redroot pigweed. The description is as above. To be noted: dose 3.2 g/a, three weeks after the application. An outline of the steps: as §2
Series [11] has as its system Italian ryegrass. The series is described as above. The note with it: dose 3.2 g/a, three weeks after the application. A digest of the protocol:
as §2

Series [12] has as its system giant foxtail. Described as above. The note with it: dose 3.2 g/a, three weeks after the application. A digest of the protocol: as §2
Series [13] relates to beadstraw. The description is as above. The note with it: dose 3.2 g/a, three weeks after the application. An outline of the steps: as §2
For series [14], the system named is common ragweed. Described as above. The note with it: dose 3.2 g/a, three weeks after the application. An outline of the steps:
as §2

Series [15] relates to large crabgrass. The series is described as above. To be noted: dose 3.2 g/a, three weeks after the application. A digest of the protocol:
as §2

In series [16] the test system is velvetleaf. The description is as above. To be noted: dose 3.2 g/a, three weeks after the application. A digest of the protocol: as §2
The subject of series [17] is bulrush. The series can be described thus: Test Example 1: herbicidal effects in preemergence treatment under submerged conditions. The note with it: dose 2.52 g/a. An outline of the steps: as §1
The test system of series [18] is ducksalad. Described as above. To be noted: dose 2.52 g/a. An outline of the steps:
as §1

Series [19] concerns barnyardgrass. Described as above. To be noted: dose 2.52 g/a. A digest of the protocol: as §1
The test system of series [20] is common lambsquater. The series can be described thus: Test Example 3: herbicidal effects in soil treatment. The note with it: dose 3.2 g/a. A digest of the protocol: (§3)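 Seeds were sown in sterilized diluvial soil and covered with about 1.5 cm of soil. Compounds, formulated as emulsifiable concentrates and diluted with water, were sprayed evenly over the soil surface at set doses in g/a. Herbicidal effect was scored on a rating scale three weeks later.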

Series [21] deals with posumbu knotweed. The description is as above. The note with it: dose 3.2 g/a. A digest of the protocol:
as §3

Series [22] deals with wild oat. Described as above. To be noted: dose 3.2 g/a. A digest of the protocol:
as §3

Series [23] concerns common chickweed. Described as above. The note with it: dose 3.2 g/a. A digest of the protocol:
as §3

Series [24] deals with barnyardgrass. The series is described as above. The note with it: dose 3.2 g/a. A digest of the protocol:
as §3

The subject of series [25] is water foxtail. The description is as above. To be noted: dose 3.2 g/a. A digest of the protocol:
as §3

Series [26] concerns redroot pigweed. Described as above. The note with it: dose 3.2 g/a. A digest of the protocol:
as §3

The test system of series [27] is Italian ryegrass. Described as above. To be noted: dose 3.2 g/a. An outline of the steps:
as §3

For series [28], the system named is giant foxtail. The series is described as above. To be noted: dose 3.2 g/a. A digest of the protocol:
as §3

Series [29] deals with beadstraw. The description is as above. The note with it: dose 3.2 g/a. An outline of the steps:
as §3

In series [30] the test system is common ragweed. The description is as above. The note with it: dose 3.2 g/a. A digest of the protocol: as §3
The test system of series [31] is large crabgrass. Described as above. The note with it: dose 3.2 g/a. An outline of the steps:
as §3

Series [32] has as its system velvetleaf. The series is described as above. The note with it: dose 3.2 g/a. A digest of the protocol: as §3
The subject of series [33] is bulrush. The series can be described thus: Test Example 2: herbicidal effects during the vegetation period under submerged conditions. To be noted: treatment during the vegetation period under submerged conditions; dose 2.52 g/a. An outline of the steps:
(§4)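 Barnyardgrass, bulrush and ducksalad were co-sown in alluvial soil flooded to 4 cm and grown in a greenhouse at 25 to 30° C. At the 1- or 2-leaf stage, water-diluted emulsifiable concentrates went onto the water surface at set doses (g/a). Herbicidal effect was scored three weeks later on a graded scale.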

Series [34] concerns ducksalad. Described as above. The note with it: treatment during the vegetation period under submerged conditions; dose 2.52 g/a. A digest of the protocol: as §4
The test system of series [35] is barnyardgrass. Described as above. The note with it: treatment during the vegetation period under submerged conditions; dose 2.52 g/a. An outline of the steps:
as §4

Take `CC(C)COC(O)N(c1ccccc1CN1CCCOC1=O)S(=O)(=O)C(F)(F)F` (stereo not drawn) [a, reference compound]: the “herbicidal effect, A (barnyardgrass)” value in [1] (dose 0.16 g/a) is recorded as 0 (mortality of less than 5% (almost ineffective)); in [1] (dose 0.64 g/a), 0 (mortality of less than 5% (almost ineffective)); in [1] (dose 2.52 g/a), 5 (mortality of 90% or above (nearly complete death)); in series [2] (dose 0.16 g/a), 0 (mortality of less than 5% (almost ineffective)); in series [2] (dose 0.64 g/a), 5 (mortality of 90% or above (nearly complete death)); in [2] (dose 2.52 g/a), 5 (mortality of 90% or above (nearly complete death)).

Turning to `CN1COCN(Cc2ccccc2N(C(=O)OCCCl)S(=O)(=O)C(F)(F)F)C1=O` [IV-3], in series [3], the “a: transplanted rice, effect on crop (evaluation scale 0-5)” value is reported as 0 (mortality of less than 5% (almost ineffective)). Also, the “L: common lambsquater, herbicidal effect” value in series [4] is 0 (mortality of less than 5% (almost ineffective)). Besides, in series [5], the “M: posumbu knotweed, herbicidal effect” value is listed as 0 (mortality of less than 5% (almost ineffective)). Moreover, in series [6], the “F: wild oat, herbicidal effect” value was 0 (mortality of less than 5% (almost ineffective)). Besides, in [7], the “N: common chickweed, herbicidal effect” value is on record as 5 (mortality of 90% or above (nearly complete death)). The “A: barnyardgrass, herbicidal effect” value in series [8] was 4 (mortality of at least 70% and less than 90%). In addition, in series [9], the “G: water foxtail, herbicidal effect” value is 5 (mortality of 90% or above (nearly complete death)). Besides, the “K: redroot pigweed, herbicidal effect” value in [10] is given as 0 (mortality of less than 5% (almost ineffective)). Moreover, the “H: Italian ryegrass, herbicidal effect” value in series [11] was 1 (mortality of at least 5% and less than 20%). Also, the “E: giant foxtail, herbicidal effect” value in series [12] is 3 (mortality of at least 40% and less than 70%). Also, the “O: beadstraw, herbicidal effect” value in [13] is reported as 0 (mortality of less than 5% (almost ineffective)). In addition, the “J: common ragweed, herbicidal effect” value in series [14] was 1 (mortality of at least 5% and less than 20%). Also, the “D: large crabgrass, herbicidal effect” value in series [15] is 4 (mortality of at least 70% and less than 90%). Moreover, the “I: velvetleaf, herbicidal effect” value in [16] was 3 (mortality of at least 40% and less than 70%). The “B: bulrush, herbicidal effect (evaluation scale 0-5)” value in [17] and in series [33] was 5 (mortality of 90% or above (nearly complete death)) in each case. Moreover, the “C: ducksalad, herbicidal effect (evaluation scale 0-5)” value is 5 (mortality of 90% or above (nearly complete death)) in series [18]; 4 (mortality of at least 70% and less than 90%) in [34]. Besides, the “A: barnyardgrass, herbicidal effect (evaluation scale 0-5)” value in series [19] and in [35] was 5 (mortality of 90% or above (nearly complete death)) each time. Further, in series [20], the “herbicidal effect, L: common lambsquater” value was 0 (mortality of less than 5% (almost ineffective)). Besides, the “herbicidal effect, M: posumbu knotweed” value in series [21] is on record as 0 (mortality of less than 5% (almost ineffective)). The “herbicidal effect, F: wild oat” value in series [22] is reported as 0 (mortality of less than 5% (almost ineffective)). Moreover, the “herbicidal effect, N: common chickweed” value in series [23] is recorded as 0 (mortality of less than 5% (almost ineffective)). Also, the “herbicidal effect, A: barnyardgrass” value in [24] is on record as 5 (mortality of 90% or above (nearly complete death)). In addition, the “herbicidal effect, G: water foxtail” value in [25] is 5 (mortality of 90% or above (nearly complete death)). For the same compound, in series [26], the “herbicidal effect, K: redroot pigweed” value is on record as 0 (mortality of less than 5% (almost ineffective)). In [27], the “herbicidal effect, H: Italian ryegrass” value is 0 (mortality of less than 5% (almost ineffective)). For the same compound, the “herbicidal effect, E: giant foxtail” value in [28] is 3 (mortality of at least 40% and less than 70%). Also, the “herbicidal effect, O: beadstraw” value in [29] is on record as 0 (mortality of less than 5% (almost ineffective)). Also, in series [30], the “herbicidal effect, J: common ragweed” value is 0 (mortality of less than 5% (almost ineffective)). Besides, the “herbicidal effect, D: large crabgrass” value in [31] was 4 (mortality of at least 70% and less than 90%). In addition, the “herbicidal effect, I: velvetleaf” value in series [32] is listed as 5 (mortality of 90% or above (nearly complete death)).
